Read-outs that look alike come from different tables or passages of the source. Blank lines part the entries; values can stand above or below the molecule they belong to.
Tests used:
[1] = tested on: T98G cells; test: Cytotoxicity synergy study with topoisomerase inhibitors; type: cell-based
From the text: The highest amount of synergy is 50-60% more cell death than would be expected by adding together the cytotoxicity of each compound alone. […] The total synergistic volume was 457, with the greatest synergism being about 30%-40% more cell death than would be expected by adding together the individual Smac and topotecan cytotoxicities, between Entry 1 and a topoismerase inhibitor, such as topotecan.
(§1) To further assess potential drug-drug interactions a matrix of the permutations of two-fold serial dilutions of each drug and a Snac mimetic were tested as well as the activity of each compound alone using a program called MacSynergy II (Prichard, M. N., K. R. Aseltine, and C. Shipman, Jr. 1993. MacSynergy II. User's manual. Univ. of Michigan, Ann Arbor). The synergy with paclitaxel and the Smac peptidomimetic Entry 122 in OVCAR3 cells was tested. The highest amount of synergy detected is 10-20% which indicates greater cell death than would be expected by adding together the cytotoxicity of either compound alone.

[2] = tested on: MDA-MB-231 cells; test: Cell proliferation (MTT assay) with and without TRAIL; type: cell-based; details: MDA-MB-231, MTT, FIG. 4
[3] = Half life after single intravenous dose in rat; details: in vivo, single IV dose 1 mg/kg, FIG. 2, read-out: terminal elimination half life (converted)
Procedure: The IV dose for each Smac mimetic was 1 mg/kg.

[4] = molecular target: T1, XIAP-BIR3 (Homo sapiens, UniProt P98170); test: XIAP BIR-3 fluorescence polarization binding assay; details: read-out: KD Range
T1 construct: 40 nM of XIAP-BIR3 for 15 min at RT
Procedure: Following incubation, the polarization values (mP) were measured on a Victor^2V using a 485 nm excitation filter and a 520 nm emission filter. IC50 values were determined from the plot using nonlinear least-squares analysis using GraphPad Prism.

[5] = tested on: MDA-MB-231 cells; test: Colony formation assay with and without TRAIL; type: cell-based; details: MDA-MB-231, in combination with TRAIL
Procedure: The ability of cells to form viable colonies was analyzed by adding various concentrations of the compound in the presence and absence of 0.4 ng/ml of TRAIL. Briefly, cells are seeded at 100 cells per well in a 12 well format in 2 ml of growth medium. The medium is removed after twenty-four hours and replaced with Smac mimetics at various concentrations in growth medium with 1% DMSO. After 72 hours on test, the concentrations are removed and replaced with 2 ml. of growth medium. The plates are returned to the incubator for 7-10 days at which time the colonies have multiplied to at least 10 cells per colony which can be counted by eye. The plates are stained with a 0.01% crystal violet solution (wt:vol. in H2O) for thirty minutes. The plates are washed with tap water to remove any residual crystal violet, dried and the colonies are counted. Inhibition data were analyzed using the sigmoidal dose-response (variable slope) equation in GraphPad Prism (GraphPad Software, San Diego, Calif.). The 50% inhibitory concentration (EC50) was the drug concentration that decreased the […] by 50% relative to control samples without drug.

[6] = tested on: MRC-5 cells; test: 72 hour MTT assay, normal cell control MRC-5; type: cell-based; details: MRC-5 normal diploid cell line, FIG. 3
Procedure: (§2) A 72 hour MTT assay, as previously described by Hansen, M. B., Nielsen, S. E., and Berg, K. ((1989) J. Immunol. Methods 119, 203-210) and incorporated herein by reference in its entirety, was used to differentiate between a specific versus non-specific effect on cell killing by Smac mimetics. Briefly, SK-OV-3 cells were seeded in 96-well plates in McCoy's medium containing 10% fetal bovine serum […] (20,000 per well) and incubated overnight at 37 C. […] 50 microliters of 5 mg/mL MTT reagent was then added to each well and the plates were incubated at 37° C. for 3 hours. At the end of the incubation period, 50 microliters of DMSO was added to each well to dissolve cells and the optical density (OD) of the wells was measured using a microplate reader (Victor^2 1420, Wallac, Finland) at 535 nm. Cell survival (CS) was calculated by the following equation CS=(OD treated well/mean OD control wells)×100%
Smac mimetic Entry 116 was tested using an ovarian cancer cell line, SK-OV-3, and MRC-5 cells were used as a normal cell control.

[7] = tested on: SK-OV-3 cells; test: 72 hour MTT cell survival assay, SK-OV-3; type: cell-based; details: SK-OV-3 ovarian cancer cell line, FIG. 3
Procedure: as §2
The EC50, defined as the drug concentration that results in 50% CS, was derived by calculating the point where the dose-response curve crosses the 50% CS point using GraphPad Prism.

[8] = tested on: MDA MB-231 cells; test: Apoptosis induction, Annexin V/Propidium Iodide staining; type: cell-based
Procedure: To show the ability of Smac mimetics to induce apoptosis, Annexin V-fluorescein isothiocyanate staining was performed. […] Cells were then pelleted and resuspended in assay buffer (supplied by manufacturer). Annexin V and propidium iodide were added to the cell preparations and incubated for 1 hour in the dark at room temperature. Following the incubation additional buffer (200 μl) was then added to each tube, and the samples were analyzed immediately by flow cytometry. In the presence of Smac mimetics apoptosis was strongly promoted, as assessed by annexin/PI staining and analyzed by flow cytometry. The amplification in the number of apoptotic cells (Annexin V positive/propidium iodide negative—lower right quadrant) by IAP antagonists as compared to control was dose dependent and due to the induction of apoptosis and not via increasing the proportion of necrotic cells.

[9] = tested on: OVCAR-3 cells; test: Cytotoxicity synergy matrix (MacSynergy II) with paclitaxel, cisplatin, carboplatin; type: cell-based
Procedure: as §1
Paclitaxel the dosage ranged from about 0.0 to about 500.0 nM. For Entry 122, the dosage range was about 125.0 to about 8000.0 nM. The total synergistic volume was about 170.
The synergy with cisplatin and the Smac peptidomimetics in OVCAR-3 cells was tested The highest amount of synergy is 40-50% more cell death than would be expected by adding together the cytotoxicity of each compound alone. […] For cisplatin the dosage range was about 0.0 to about 166,500.0 nM. For Entry 122, the dosage range was about 500.0 to about 32,000.0 nM. The total synergistic volume was about 434. Similar tests were performed with the combination of carboplatin and Smac mimetics. Synergy between a Smac peptidomimetic, Entry 122, and carboplatin.

[10] = with topotecan and camptothecin
[11] = 5 nM AbuRPF-K(5-Fam)-NH2, 40 nM XIAP-BIR3, 15 min RT, pH 7.5

T1 sequence (P98170 241-356 limits assumed): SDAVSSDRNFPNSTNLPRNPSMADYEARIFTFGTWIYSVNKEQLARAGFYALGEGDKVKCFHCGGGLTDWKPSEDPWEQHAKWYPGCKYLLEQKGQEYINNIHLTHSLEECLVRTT

- half-life [3]: ≤ 6 h
- Kd ([4]; Example 9 series): < 100 nM
Molecule: CN[C@@H](C)C(=O)N[C@H](C(=O)N1CCC[C@H]1Cc1cn(CCOCCn2cc(C[C@@H]3CCCN3C(=O)[C@@H](NC(=O)[C@H](C)NC)C3CCCCC3)c3ccccc32)c2ccccc12)C1CCCCC1 [Entry 122]
- total synergistic volume ([9]; OVCAR3, paclitaxel 0.0-500.0 nM, compound 125.0-8000.0 nM): about 170
- highest amount of synergy detected ([9]; OVCAR3, with paclitaxel): 10-20%
- total synergistic volume ([9]; OVCAR-3, cisplatin 0.0-166,500.0 nM, compound 500.0-32,000.0 nM): about 434
- synergy with carboplatin ([9]; OVCAR-3, with carboplatin): Synergy
- highest amount of synergy, more cell death than expected ([9]; OVCAR-3, with cisplatin): 40-50%

- half-life [3]: ≤ 6 h
- Kd ([4]; Example 9 series): < 100 nM
Molecule: CN[C@@H](C)C(=O)N[C@H](C(=O)N1CCC[C@H]1Cc1cn(CCOCCn2cc(C[C@@H]3CCCN3C(=O)[C@@H](NC(=O)[C@H](C)NC)C3CCCCC3)c3ccc(F)cc32)c2cc(F)ccc12)C1CCCCC1 [Entry 123]

- Kd ([4]; Example 9 series): < 100 nM
Molecule: CN[C@@H](C)C(=O)N[C@H](C(=O)N1CCC[C@H]1Cc1cn(CCOCCn2cc(C[C@@H]3CCCN3C(=O)[C@@H](NC(=O)[C@H](C)NC)[C@@H](C)O)c3ccc(F)cc32)c2cc(F)ccc12)[C@@H](C)O [Entry 124]

- Kd ([4]; Example 9 series): 100 to 1000 nM
Molecule: CC[C@H](NC)C(=O)N[C@H](C(=O)N1CCC[C@H]1Cc1cn(CCOCCn2cc(C[C@@H]3CCCN3C(=O)[C@@H](NC(=O)[C@H](CC)NC)[C@@H](C)O)c3cc(F)ccc32)c2ccc(F)cc12)[C@@H](C)O [Entry 125]

- Kd ([4]; Example 9 series): < 100 nM
Molecule: CN[C@@H](C)C(=O)N[C@H](C(=O)N1CCC[C@H]1Cc1cn(CCOCCn2cc(C[C@@H]3CCCN3C(=O)[C@@H](NC(=O)[C@H](C)NC)C3CCCCC3)c3cc(F)ccc32)c2ccc(F)cc12)C1CCCCC1 [Entry 126]

- Kd ([4]; Example 9 series): < 100 nM
Molecule: CN[C@@H](C)C(=O)N[C@H](C(=O)N1CCC[C@H]1Cc1c(C)n(CCOCCn2c(C)c(C[C@@H]3CCCN3C(=O)[C@@H](NC(=O)[C@H](C)NC)C3CCCCC3)c3cc(F)ccc32)c2ccc(F)cc12)C1CCCCC1 [Entry 127]

- Kd ([4]; Example 9 series): < 100 nM
Molecule: CN[C@@H](C)C(=O)N[C@H](C(=O)N1CCC[C@H]1Cc1cn(CCOCCn2cc(C[C@@H]3CCCN3C(=O)[C@@H](NC(=O)[C@H](C)N)C3CCCCC3)c3ccccc32)c2ccccc12)C1CCCCC1 [Entry 143]

Further lines, the molecule ahead of its results:

Molecule: CC(N)C(=O)NC(C(=O)N1CCCC1Cc1c(-c2ccc(-c3oc4ccccc4c3CC3CCCN3C(=O)C(NC(=O)C(C)N)C(C)C)cc2)oc2ccccc12)C(C)C (single isomer, unassigned) [Entry 1]
- total synergistic volume ([1]; with a topoisomerase inhibitor such as topotecan): 457
- greatest synergism, more cell death than expected by adding the individual cytotoxicities ([1]; with topotecan): 30%-40%
- highest amount of synergy, more cell death than expected by adding the cytotoxicity of each compound alone [1, 10]: 50-60%
- synergy with topoisomerase inhibitors [1, 10]: act synergistically
- increase in the antiproliferative effect in combination with TRAIL ([2]; in combination with TRAIL): 1000 fold
- antiproliferative effect, Smac mimetic alone ([2]; without TRAIL): resistant
- half-life [3]: ~6 h
- Kd [4, 11]: < 100 nM
- increase in the cell killing as detected by loss in colony formation [5]: 100 fold

Molecule: CN[C@@H](C)C(=O)N[C@H](C(=O)N1C[C@@H](O)C[C@H]1Cc1c(-c2[nH]c3cc(F)ccc3c2C[C@@H]2C[C@H](O)CN2C(=O)[C@@H](NC(=O)[C@H](C)NC)[C@H](C)OC(C)(C)C)[nH]c2cc(F)ccc12)[C@H](C)OC(C)(C)C [Entry 114]
- Kd ([4]; Example 7 series): < 100 nM

Molecule: CN[C@@H](C)C(=O)N[C@H](C(=O)N1C[C@@H](O)C[C@H]1Cc1c(-c2[nH]c3cc(F)ccc3c2C[C@@H]2C[C@H](O)CN2C(=O)[C@@H](NC(=O)[C@H](C)NC)[C@@H](C)OC)[nH]c2cc(F)ccc12)[C@@H](C)OC [Entry 116]
- effect on normal (non-tumorigenic) cells [6]: unaffected
- more effective at killing tumor cells than negative controls [7]: 100,000 ×
- Kd ([4]; Example 7 series): < 100 nM

Molecule: CN[C@@H](C)C(=O)N[C@H](C(=O)N1CCC[C@H]1Cc1cn(CC#CC#CCn2cc(C[C@@H]3CCCN3C(=O)[C@@H](NC(=O)[C@H](C)NC)C(C)(C)C)c3ccccc32)c2ccccc12)C(C)(C)C [Entry 119]
- Kd [4, 11]: < 100 nM

Molecule: CN[C@@H](C)C(=O)N[C@H](C(=O)N1CCC[C@H]1Cc1cn(CC#CC#CCn2cc(C[C@@H]3CCCN3C(=O)[C@@H](NC(=O)[C@H](C)NC)C3CCCCC3)c3ccccc32)c2ccccc12)C1CCCCC1 [Entry 120]
- Kd [4, 11]: < 100 nM

Molecule: CN[C@@H](C)C(=O)N[C@H](C(=O)N1CCC[C@H]1Cc1cn(CC#CC#CCn2cc(C[C@@H]3CCCN3C(=O)[C@@H](NC(=O)[C@H](C)NC)C(C)C)c3ccccc32)c2ccccc12)C(C)C [Entry 121]
- apoptosis induced, agent alone ([8]; MDA MB-231, after 4 hours): failed to induce significant apoptosis
- increase in apoptotic activity, combination of TRAIL with compound ([8]; MDA MB-231, after 4 hours): 4 fold
- apoptosis, compound alone ([8]; MDA MB-231, without TRAIL): approximately 10 % of cell total
- Kd [4, 11]: < 100 nM

B1: TRAIL: tumor necrosis factor-related apoptosis-inducing ligand (TRAIL) (protein, UniProt P50591 1-281, looked up)
Tumor necrosis factor ligand …: MAMMEVQGGPSLGQTCVLIVIFTVLLQSLCVAVTYVYFTNELKQMQDKYSKSGIACFLKEDDSYWDPNDEESMNSPCWQVKWQLRQLVRKMILRTSEETISTVQEKQQNISPLVRERGPQRVAAHITGTRGRSNTLSSPNSKNEKALGRKINSWESSRSGHSFLSNLHLRNGELVIHEKGFYYIYSQTYFRFQEEIKENTKNDKQMVQYIYKYTSYPDPILLMKSARNSCWSKDAEYGLYSIYQGGIFELKENDRIFVSVTNEHLIDMDHEASFFGAFLVG
- apoptosis induced, agent alone ([8]; MDA MB-231, after 4 hours): little, if any

Reference: patent publication US9187490B2, “Dimeric IAP inhibitors” (TetraLogic Pharmaceuticals Corporation, priority 2005, dated 2015)
